Values of other authors, collected in patent US6344218B1, “Skin deodorizing and santizing compositions” (The Procter & Gamble Company, priority 1998, dated 2002).
Structures can show the parent of a compound that is named as a salt.

| Structure (SMILES) | solubility in water |
| --- | --- |
| [H]/N=C(\N/C(=N/[H])NCCCCCCNC(=N)NC(=N)Nc1ccc(Cl)cc1)Nc1ccc(Cl)cc1 [digluconate salt, 1,1′-hexamethylene bis(5-(p-chlorophenyl)biguanide), reference compound] | about 70% |
| [Na+].[O-][n+]1ccccc1[S-] [sodium pyrithione] | about 50% |
| CC(C)(O)C(Cl)(Cl)Cl [chlorobutanol, 1,1,1-Trichloro-2-methylpropan-2-ol] | about 0.8% |
| ClC=CC[N+]12CN3CN(CN(C3)C1)C2.[Cl-] [Dowicil 200, 1-(3-Chlorallyl)-3,5,7-triaza-1-azoniaadamantane chloride] | freely soluble in water |
| CC1(C)C(=O)N(CO)C(=O)N1CO [DMDM hydantoin, 1,3-bis(hydroxymethyl)-5,5-dimethyl-2,4-imidazolidinedione] | more than 50% |
| O=[N+]([O-])C1(Br)COCOC1 [Bronidox L, 5-bromo-5-nitro-1,3-dioxane] | about 0.46% |

Second part, the molecule after the results:

| solubility in water | Structure (SMILES) |
| --- | --- |
| about 25% | O=[N+]([O-])C(Br)(CO)CO [Bronopol, 2-bromo-2-nitropropane-1,3-diol] |
| about 2.67% | OCCOc1ccccc1 [2-phenoxyethanol] |
| about 1.8% | [H]/N=C(\N/C(=N/[H])NCCCCCCNC(=N)NC(=N)Nc1ccc(Cl)cc1)Nc1ccc(Cl)cc1 [diacetate salt, 1,1′-hexamethylene bis(5-(p-chlorophenyl)biguanide), reference compound] |
| about 4% | OCc1ccccc1 [benzyl alcohol] |
| about 2% | OCCc1ccccc1 [2-phenylethanol] |
